Test results from ChEMBL document CHEMBL3045810, “Synthesis and evaluation of 4-(substituted)-acetylamino-3-mercapto-5-(4-substituted) phenyl-1,2,4-triazole derivatives as antimicrobial agents” (2012).
Active and inactive are the calls of the source. No cut-off for these calls is given here.

How the values were obtained:
[1] = tested on: Escherichia coli; assay: Antibacterial activity against Escherichia coli ATCC 8793 at 50 ug/ml after 24 hr by paper disk diffusion method; format: functional; conditions: ATCC 8793, 24 h, read-out: DIZ
[2] = tested on: Candida albicans; assay: Antifungal activity against Candida albicans MTCC 227 at 30 ug/ml by paper disk diffusion method; format: functional; conditions: read-out: DIZ
[3] = tested on: Candida albicans; assay: Antifungal activity against Candida albicans MTCC 227 at 50 ug/ml by paper disk diffusion method; format: functional; conditions: read-out: DIZ
[4] = tested on: Pseudomonas aeruginosa; assay: Antibacterial activity against Pseudomonas aeruginosa ATCC 27853 at 50 ug/ml after 24 hr by paper disk diffusion method; format: functional; conditions: ATCC 27853, 24 h, read-out: DIZ
[5] = tested on: Aspergillus niger; assay: Fungicidal activity against Aspergillus niger MTCC 3323; format: functional, organism-based
[6] = tested on: Fusarium oxysporum; assay: Antifungal activity against Fusarium oxysporum MTCC 2087 at 30 ug/ml by paper disk diffusion method; format: functional; conditions: read-out: DIZ
[7] = tested on: Aspergillus niger; assay: Antifungal activity against Aspergillus niger MTCC 3323 at 30 ug/ml by paper disk diffusion method; format: functional; conditions: read-out: DIZ
[8] = tested on: Escherichia coli; assay: Antibacterial activity against Escherichia coli ATCC 8793 at 70 ug/ml after 24 hr by paper disk diffusion method; format: functional; conditions: ATCC 8793, 24 h, read-out: DIZ
[9] = tested on: Staphylococcus aureus; assay: Bactericidal activity against Staphylococcus aureus ATCC 25923; format: functional, organism-based
[10] = tested on: Bacillus subtilis; assay: Antibacterial activity against Bacillus subtilis ATCC 6633 at 70 ug/ml after 24 hr by paper disk diffusion method; format: functional; conditions: ATCC 6633, 24 h, read-out: DIZ
[11] = tested on: Escherichia coli; assay: Bactericidal activity against Escherichia coli ATCC 8793; format: functional, organism-based
[12] = tested on: Fusarium oxysporum; assay: Fungicidal activity against Fusarium oxysporum MTCC 2087; format: functional, organism-based
[13] = tested on: Bacillus subtilis; assay: Bactericidal against Bacillus subtilis ATCC 6633; format: functional, organism-based
[14] = tested on: Pseudomonas aeruginosa; assay: Bactericidal activity against Pseudomonas aeruginosa ATCC 27853; format: functional, organism-based
[15] = tested on: Bacillus subtilis; assay: Antibacterial activity against Bacillus subtilis ATCC 6633 at 30 ug/ml after 24 hr by paper disk diffusion method; format: functional; conditions: ATCC 6633, 24 h, read-out: DIZ
[16] = tested on: Bacillus subtilis; assay: Antibacterial activity against Bacillus subtilis ATCC 6633 at 50 ug/ml after 24 hr by paper disk diffusion method; format: functional; conditions: ATCC 6633, 24 h, read-out: DIZ
[17] = tested on: Candida albicans; assay: Antifungal activity against Candida albicans MTCC 227 at 70 ug/ml by paper disk diffusion method; format: functional; conditions: read-out: DIZ
[18] = tested on: Staphylococcus aureus; assay: Antibacterial activity against Staphylococcus aureus ATCC 25923 at 70 ug/ml after 24 hr by paper disk diffusion method; format: functional; conditions: ATCC 25923, 24 h, read-out: DIZ
[19] = tested on: Candida albicans; assay: Fungicidal activity against Candida albicans MTCC 227; format: functional, organism-based
[20] = tested on: Staphylococcus aureus; assay: Antibacterial activity against Staphylococcus aureus ATCC 25923 at 50 ug/ml after 24 hr by paper disk diffusion method; format: functional; conditions: ATCC 25923, 24 h, read-out: DIZ
[21] = tested on: Staphylococcus aureus; assay: Antibacterial activity against Staphylococcus aureus ATCC 25923 at 30 ug/ml after 24 hr by paper disk diffusion method; format: functional; conditions: ATCC 25923, 24 h, read-out: DIZ
[22] = tested on: Fusarium oxysporum; assay: Antifungal activity against Fusarium oxysporum MTCC 2087 at 50 ug/ml by paper disk diffusion method; format: functional; conditions: read-out: DIZ
[23] = tested on: Aspergillus niger; assay: Antifungal activity against Aspergillus niger MTCC 3323 at 50 ug/ml by paper disk diffusion method; format: functional; conditions: read-out: DIZ
[24] = tested on: Aspergillus niger; assay: Antifungal activity against Aspergillus niger MTCC 3323 at 70 ug/ml by paper disk diffusion method; format: functional; conditions: read-out: DIZ
[25] = tested on: Pseudomonas aeruginosa; assay: Antibacterial activity against Pseudomonas aeruginosa ATCC 27853 at 70 ug/ml after 24 hr by paper disk diffusion method; format: functional; conditions: ATCC 27853, 24 h, read-out: DIZ
[26] = tested on: Escherichia coli; assay: Antibacterial activity against Escherichia coli ATCC 8793 at 30 ug/ml after 24 hr by paper disk diffusion method; format: functional; conditions: ATCC 8793, 24 h, read-out: DIZ
[27] = tested on: Pseudomonas aeruginosa; assay: Antibacterial activity against Pseudomonas aeruginosa ATCC 27853 at 30 ug/ml after 24 hr by paper disk diffusion method; format: functional; conditions: ATCC 27853, 24 h, read-out: DIZ
[28] = tested on: Fusarium oxysporum; assay: Antifungal activity against Fusarium oxysporum MTCC 2087 at 70 ug/ml by paper disk diffusion method; format: functional; conditions: read-out: DIZ

SMILES	zone of inhibition at 50 µg/mL [1]	zone of inhibition at 30 µg/mL [2]	zone of inhibition at 50 µg/mL [3]	zone of inhibition at 50 µg/mL [4]	zone of inhibition at 30 µg/mL [6]	zone of inhibition at 30 µg/mL [7]	zone of inhibition at 70 µg/mL [8]	zone of inhibition at 70 µg/mL [10]	zone of inhibition at 30 µg/mL [15]	zone of inhibition at 50 µg/mL [16]	zone of inhibition at 70 µg/mL [17]	zone of inhibition at 70 µg/mL [18]	zone of inhibition at 50 µg/mL [20]	zone of inhibition at 30 µg/mL [21]	zone of inhibition at 50 µg/mL [22]	zone of inhibition at 50 µg/mL [23]	zone of inhibition at 70 µg/mL [24]	zone of inhibition at 70 µg/mL [25]	zone of inhibition at 30 µg/mL [26]	zone of inhibition at 30 µg/mL [27]	other results
COc1ccc(-c2nnc(S)n2NC(=O)CN(C(C)C)C(C)C)cc1	10.3 mm	11.2 mm	12.1 mm	12.3 mm	7.26 mm	10.1 mm	12.4 mm	10.5 mm	8.5 mm	9.3 mm	13.8 mm	10.3 mm	9.26 mm	8.2 mm	8.13 mm	11.3 mm	13 mm	13.3 mm	9.43 mm	11.1 mm	Activity [5]: inactive; Activity [9]: Active; Activity [11]: Active; Activity [12]: inactive; Activity [13]: Active; Activity [14]: Active; Activity [19]: inactive; zone of inhibition at 70 µg/mL [28]: 9.06 mm
CCCCCN(CCCCC)CC(=O)Nn1c(S)nnc1-c1ccc(C)cc1	7.16 mm	7.26 mm	8.1 mm	8.13 mm	7.07 mm	9.06 mm	8.13 mm	8.23 mm	6.46 mm	7.2 mm	9.23 mm	8.16 mm	7.1 mm	6.03 mm	8.23 mm	11.3 mm	12.1 mm	9.17 mm	6.26 mm	7.13 mm	Activity [5]: inactive; Activity [9]: Active; Activity [11]: Active; Activity [12]: inactive; Activity [13]: Active; Activity [14]: Active; Activity [19]: inactive; zone of inhibition at 70 µg/mL [28]: 9.13 mm
CCCCN(C)CC(=O)Nn1c(S)nnc1-c1ccc(C)cc1	8.56 mm	8.16 mm	9.23 mm	9.33 mm	6.03 mm	7 mm	9.2 mm	9.23 mm	7.43 mm	8.2 mm	10.1 mm	9.26 mm	8.23 mm	7.4 mm	7.2 mm	8.26 mm	9.17 mm	10.3 mm	7.26 mm	8.2 mm	zone of inhibition at 70 µg/mL [28]: 8.13 mm
NCC[C@H](O)C(=O)N[C@@H]1C[C@H](N)[C@@H](O[C@H]2O[C@H](CN)[C@@H](O)[C@H](O)[C@H]2O)[C@H](O)[C@H]1O[C@H]1O[C@H](CO)[C@@H](O)[C@H](N)[C@H]1O [AMIKACIN]																			21.3 mm	22.1 mm	
CN[C@H](CC(C)C)C(=O)N[C@H]1C(=O)N[C@@H](CC(N)=O)C(=O)N[C@H]2C(=O)N[C@H]3C(=O)N[C@H](C(=O)N[C@H](C(=O)O)c4cc(O)cc(O)c4-c4cc3ccc4O)[C@H](O)c3ccc(c(Cl)c3)Oc3cc2cc(c3O[C@@H]2O[C@H](CO)[C@@H](O)[C@H](O)[C@H]2O[C@H]2C[C@](C)(N)[C@H](O)[C@H](C)O2)Oc2ccc(cc2Cl)[C@H]1O [VANCOMYCIN]									17.4 mm					18.2 mm							
CCCN(CCC)CC(=O)Nn1c(S)nnc1-c1ccc(OC)cc1	12.2 mm	12.5 mm	13.2 mm	13.2 mm	10.2 mm	14 mm	14.2 mm	12.8 mm	10.2 mm	11 mm	15.1 mm	14.8 mm	13.2 mm	12.7 mm	11.1 mm	15.2 mm	17 mm	14.1 mm	11.1 mm	12.2 mm	Activity [5]: Active; Activity [9]: Active; Activity [11]: Active; Activity [12]: Active; Activity [13]: Active; Activity [14]: Active; Activity [19]: Active; zone of inhibition at 70 µg/mL [28]: 12.2 mm
CCCCN(CCCC)CC(=O)Nn1c(S)nnc1-c1ccc(OC)cc1	15.1 mm	16.1 mm	18.3 mm	16.2 mm	13.1 mm	18.1 mm	17.3 mm	15.2 mm	11.2 mm	13 mm	20.4 mm	17.2 mm	15.2 mm	13.1 mm	14.3 mm	20.1 mm	22.4 mm	18.2 mm	13 mm	15.1 mm	Activity [5]: Active; Activity [9]: Active; Activity [11]: Active; Activity [12]: Active; Activity [13]: Active; Activity [14]: Active; Activity [19]: Active; zone of inhibition at 70 µg/mL [28]: 16.2 mm
Clc1ccccc1C(c1ccccc1)(c1ccccc1)n1ccnc1 [CLOTRIMAZOLE]		21.9 mm			19.3 mm	22.6 mm															
CCCCCN(CCCCC)CC(=O)Nn1c(S)nnc1-c1ccc(OC)cc1	9.26 mm	10.1 mm	11.3 mm	7.13 mm	6.17 mm	11.2 mm	10.2 mm	8.03 mm	6.13 mm	7.26 mm	12.2 mm	9.16 mm	8.13 mm	7.2 mm	7.21 mm	12.2 mm	13 mm	8.1 mm	8.97 mm	6.23 mm	Activity [5]: inactive; Activity [9]: Active; Activity [11]: Active; Activity [12]: inactive; Activity [13]: Active; Activity [14]: Active; Activity [19]: inactive; zone of inhibition at 70 µg/mL [28]: 8.2 mm
CCCCN(C)CC(=O)Nn1c(S)nnc1-c1ccc(OC)cc1	8.63 mm	11.1 mm	12.2 mm	10.4 mm	6.16 mm	10.6 mm	9.6 mm	11.2 mm	9.27 mm	10.2 mm	14.2 mm	13.5 mm	11 mm	10.2 mm	6.26 mm	11.1 mm	13.2 mm	12.2 mm	7.2 mm	9.2 mm	Activity [5]: Active; Activity [9]: Active; Activity [11]: Active; Activity [12]: Active; Activity [13]: Active; Activity [14]: Active; Activity [19]: Active; zone of inhibition at 70 µg/mL [28]: 7.23 mm
